Laboratory results as given in patent US20190290620A1, “APPLICATIONS OF NOVEL THIAZOLE DERIVATIVE IN TREATING INFLAMMATORY BOWEL DISEASES” (EAST CHINA UNIVERSITY OF SCIENCE AND TECHNOLOGY, priority 2016, published 2019).
Marks after values point to notes of the source that are not given here.

System: TNBS-induced ulcerative colitis model mice
Assay: TNBS-induced mice ulcerative colitis model
Type: in vivo, BALB/c male mice
Parameters: key to Scores of gross morphological damages: 0 = no adhesion/ulcer/inflammation, 4+ = severe ulcers (+1 per cm)
Conditions: for Score (body weight index according to the disease activity index, DAI): 0-4 points by weight decrease; for Score (body weight index according to the disease activity index, DAI) / Length of the colon / Weight of the colon / Histopathology scores / Scores of gross morphological damages / weight/length ratio (average) of colon: ig 7 days, sulfasalazine 500 mg/kg; for Score (body weight index according to the disease activity index, DAI) / Length of the colon / Weight of the colon / Histopathology scores / Scores of gross morphological damages / weight/length ratio (average) of colon / Ratio of weight loss: compound 20 mg/kg; for Length of the colon / Weight of the colon: 24 hours after last administration; for Histopathology scores: H&E colon sections, epithelial cells and inflammatory cell infiltration points; for Scores of gross morphological damages: colon adhesion, ulceration, inflammation points; for weight/length ratio (average) of colon: colon weight (g) / length (cm); for Ratio of weight loss: ig daily for 7 days from day of modeling, positive drug sulfasalazine 500 mg/kg, 10 mice per group
Protocol: BALB/c male mice (each 18-22 g) of SPF level were purchased from Shanghai Slack Laboratory Animal Co., Ltd. and were used in experiments after adaptive feeding for 7 days.
BALB/c male mice were kept in an animal cage (daylight and darkness of 12 hours, respectively) at a temperature of 20-25° C. and relative humidity of 50-60%, free access to food and water.
Mice were randomly divided into normal control group, trinitrobenzenesulfonic acid (TNBS) model group, drug treatment group and positive drug control group (sulfasalazine 500 mg/kg).
All of the mice in model group and administration group were shaved in the abdomen (area 2×2 cm) and sensitized with 1% TNBS (dissolved in 50% ethanol). On the 7th day, the mice were fasted, but not water. After 24 hours, the mice were anesthetized through intraperitoneal injection of 0.1 ml of 10% chloral hydrate and 2% TNBS was used for lavation to establish a mouse model of ulcerative colitis. A gavage needle for rat was inserted into the colon of a mouse, the tip of the needle was about 3˜3.5 cm away from the anus, and 0.1 ml of modeling solution (5% TNBS and deionized water were mixed at a volume ratio of 4:1, and the obtained solution was mixed with absolute ethanol at a volume ratio of 1:1, so as to obtain the modeling solution) was injected. The mice were put back into the cage and wake up naturally. The mice in the normal control group were injected with 0.12 ml of solvent (50% ethanol solution) by the same manner.
Administration was started on the day of modeling (using 0.5% sodium carboxymethylcellulose, CMC-Na) for 7 consecutive days.
At 24 hours after the last administration, the mice were sacrificed by cervical dislocation, the peritoneum was cut open, and the whole colon was taken. The intestine was cut longitudinally along the mesenteric margin, rinsed with ice physiological saline, placed on ice, and the pathological changes of the colon were observed. The fat and mesentery were removed, the water was blotted with filter paper, the weight of the colon was weighed and the length was measured. The colon was fixed in 4% formaldehyde for more than 24 hours, dehydrated, paraffin-embedded and H&E stained, and the pathological sections were observed.
The mice were observed and recorded daily for mental state, fur color, and activities. The mice was weighed daily and observed for the stool traits. The body weight index according to the disease activity index (DAI) is as follows:
After the colon of a mouse was removed, the weight of the colon was measured with a precision electronic balance, the length was measured with a vernier caliper, and the weight/length ratio of the colon was calculated.
The criteria for scores were: no adhesion, no ulcer, no inflammation, 0 points; mild adhesion, local congestion, no ulcer, 1 point; severe adhesion, 1 ulcer (area less than 1 cm), no obvious inflammation, 2 points; more than 1 ulcers (area less than 1 cm) with inflammation, 3 points; 2 severe ulcers (area greater than 1 cm) with inflammation, 4 points; and 1 point for each 1 cm increase in ulcer area.
Pathological changes of colon tissue were observed under light microscope, and the scores were recorded. The criteria for scores are as follows:
1) Epithelial cells: normal morphology, 0 points; loss of goblet cells, 1 point; large loss of goblet cells, 2 points; loss of crypt cells, 3 points; large loss of crypt cells, 4 points.
2) Infiltration of inflammatory cells: no infiltration, 0 points; infiltration in the basal layer of the crypt, 1 point; infiltration to the muscular layer of the mucosa, 2 points; infiltration to the muscular layer of the mucosa with mucosal thickening and obvious edema, 3 points; infiltration to the submucosal layer, 4 points.
Data were expressed as […] (mean±S.E.M.), data were analyzed using SPSS statistical software, and one-way ANOVA and Tukey's HSD post hoc test were used for comparison between groups. p<0.05 was considered statistically significant.

Row | Compound | Score (body weight index according to the disease activity index, DAI) | Length of the colon | Weight of the colon | Histopathology scores | Scores of gross morphological damages | weight/length ratio (average) of colon | Ratio of weight loss | diarrhea of the mice (general condition) (FIG. 2, TNBS-mediated UC model BALB/c mice, Compound 16 in three different dosage groups, sulfasalazine control group) | death of mice (FIG. 2, on the 8th day of the experiment, model group mortality about 50%) | extent of ulcer lesions of colon and visceral adhesions (FIG. 3, compound 312 at 5 mg/kg, 20 mg/kg, 50 mg/kg and positive drugs, vs model group) | histopathology of colon (HE staining, mucosal integrity / lesions) (FIG. 4, compared with the model group)
1 | O=C(O)c1ccccc1/C=N/Nc1nc(-c2cc(Cl)ccc2Cl)cs1 [Compound 55, (E)-2-((2-(4-(2,5-dichlorophenyl)thiazol-2-yl)hydrazono)methyl)benzoic Acid] | 1 | 5.675 ± 0.222 cm | 0.148 ± 0.033 g | 1.68 ± 0.32 | 1.99 ± 0.52 | 0.026# | 2.74 ± 4.61 |  |  |  | 
2 | O=C(O)c1c(F)cccc1/C=N/Nc1nc(-c2ccccc2Cl)cs1 [Compound 58, (E)-2-((2-(4-(2-chlorophenyl)thiazol-2-yl)hydrazono)methyl)-6-fluorobenzoic Acid] |  | 5.575 ± 0.392 cm | 0.162 ± 0.028 g | 3.59 ± 0.61 | 4.32 ± 0.79 | 0.029# |  |  |  |  | 
3 | O=C(O)c1cc(/N=N/c2ccc(S(=O)(=O)Nc3ccccn3)cc2)ccc1O [sulfasalazine, reference compound] | 1 | 5.814 ± 0.465 cm | 0.145 ± 0.018 g | 1.71 ± 0.69 | 0.81 ± 0.69 | 0.025# | 1.54 ± 3.72 | mild | only one mouse died | can improve the extent of ulcer lesions of colon and visceral adhesions | largely reversed
